In US10301295B2, “Herbicidal compounds” (Syngenta Participations AG, priority 2014, dated 2019):
Like-named read-outs stand apart in the source and are kept apart here.

Assays:
Assay in all cases: Glasshouse assay for herbicidal activity, pre-/post-emergence (percentage phytotoxicity)
Type in all cases: in vivo
[1] = test system: Alopecurus myosuroides (ALOMY); conditions: Rate 250 g/ha, 100%=total damage, 0%=no damage; for pest or weed control at 250 g/ha: Alopecurus myosuroides
Description: (§1) Seeds of a variety of monocotyledonous and dicotyledonous test plants are sown in standard soil in pots. The plants are cultivated for one day (for pre-emergence) or for about 12 days (for post-emergence) under controlled conditions in a glasshouse (warm climate species at 24/18° C., cool climate species at 20/16° C., both at day/night; 16 hours light; 65% humidity). The test plants are then grown on, in a glasshouse (greenhouse) under controlled conditions (warm climate species at 24/18° C., cool climate species at 20/16° C., both at day/night; 16 hours light; 65% humidity) and are watered twice daily. 15 days after application of the test herbicide (15DAA) (for post-emergence), and 20 days after application of the test herbicide (20DAA) (for pre-emergence), the test plants are evaluated visually, and an assessed percentage phytotoxicity score is given for each herbicidal application on each plant species (with 100%=total damage to plant; 0%=no damage to plant). The plant species tested are as follows: Alopecurus myosuroides (ALOMY), Avena fatua (AVEFA), Lolium perenne (LOLPE), Echinochloa crus-galli (ECHCG).

Lolium perenne (LOLPE) = conditions: Rate 250 g/ha, 100%=total damage, 0%=no damage; for pest or weed control at 250 g/ha: Lolium perenne
Description: as §1

Avena fatua (AVEFA) = conditions: Rate 250 g/ha, 100%=total damage, 0%=no damage; for pest or weed control at 250 g/ha: Avena fatua
Description: as §1

[2] = test system: Echinochloa crus-galli (ECHCG); conditions: Rate 250 g/ha, 100%=total damage, 0%=no damage; for pest or weed control at 250 g/ha: Echinochloa crus-galli
Description: as §1

[3] = 360 h, post-emergence, visual assessment 15 DAA, read-out: Post-emergence herbicidal activity (percentage phytotoxicity), ALOMY POST
[4] = 480 h, pre-emergence, visual assessment 20 DAA, read-out: Pre-emergence herbicidal activity (percentage phytotoxicity), ALOMY PRE
[5] = post-emergence, 360 h, post-emergence, visual assessment 15 DAA, read-out: Post-emergence herbicidal activity (percentage phytotoxicity), LOLPE POST
[6] = pre-emergence, 480 h, pre-emergence, visual assessment 20 DAA, read-out: Pre-emergence herbicidal activity (percentage phytotoxicity), LOLPE PRE
[7] = post-emergence, 360 h, post-emergence, visual assessment 15 DAA, read-out: Post-emergence herbicidal activity (percentage phytotoxicity), AVEFA POST
[8] = pre-emergence, 480 h, pre-emergence, visual assessment 20 DAA, read-out: Pre-emergence herbicidal activity (percentage phytotoxicity), AVEFA PRE
[9] = post-emergence, 360 h, post-emergence, visual assessment 15 DAA, read-out: Post-emergence herbicidal activity (percentage phytotoxicity), ECHCG POST
[10] = pre-emergence, 480 h, pre-emergence, visual assessment 20 DAA, read-out: Pre-emergence herbicidal activity (percentage phytotoxicity), ECHCG PRE
[11] = post-emergence, visual assessment 15 DAA
[12] = pre-emergence, visual assessment 20 DAA

Row | SMILES | pest or weed control at 250 g/ha [1, 3] | pest or weed control at 250 g/ha [1, 4] | pest or weed control at 250 g/ha (Lolium perenne (LOLPE); [5]) | pest or weed control at 250 g/ha (Lolium perenne (LOLPE); [6]) | pest or weed control at 250 g/ha (Avena fatua (AVEFA); [7]) | pest or weed control at 250 g/ha (Avena fatua (AVEFA); [8]) | pest or weed control at 250 g/ha [2, 9] | pest or weed control at 250 g/ha [2, 10] | Post-emergence herbicidal activity (percentage phytotoxicity), ALOMY POST [1, 11] | Pre-emergence herbicidal activity (percentage phytotoxicity), ALOMY PRE [1, 12] | Post-emergence herbicidal activity (percentage phytotoxicity), LOLPE POST (Lolium perenne (LOLPE); [11]) | Pre-emergence herbicidal activity (percentage phytotoxicity), LOLPE PRE (Lolium perenne (LOLPE); [12]) | Post-emergence herbicidal activity (percentage phytotoxicity), AVEFA POST (Avena fatua (AVEFA); [11]) | Pre-emergence herbicidal activity (percentage phytotoxicity), AVEFA PRE (Avena fatua (AVEFA); [12]) | Post-emergence herbicidal activity (percentage phytotoxicity), ECHCG POST [2, 11] | Pre-emergence herbicidal activity (percentage phytotoxicity), ECHCG PRE [2, 12]
1 | C=Cc1cc(C)cc(C)c1C1C(=O)CC(CCNC(=O)C2=NOC(C)(C)C2)C1=O (racemic) [Compound A122, N-[2-[3-(2,4-dimethyl-6-vinyl-phenyl)-2,4-dioxo-cyclopentyl]ethyl]-5,5-dimethyl-4H-isoxazole-3-carboxamide] | 90% | 0% | 80% | 0% | 90% | 0% | 90% | 0% | – | – | – | – | – | – | – | –
2 | CC#Cc1cc(C)c(C2C(=O)CC(CCNC(=O)Nc3ccccn3)C2=O)c(C)c1 (stereo not drawn) [Compound A92] | 90% | 70% | 100% | 70% | 100% | 30% | 100% | 80% | – | – | – | – | – | – | – | –
3 | Cc1cc(C)c(C2C(=O)CC(CCNC(=O)Nc3ccc(F)cn3)C2=O)c(C)c1.Cl (stereo not drawn) [Compound A93] | – | – | – | – | – | – | – | – | 90% | 90% | 70% | 90% | 90% | 70% | 100% | 90%
4 | CNC(=O)NCCC1CC(=O)C(c2c(C)cc(C)cc2C)C1=O (stereo not drawn) [Compound A94, 1-[2-[2,4-dioxo-3-(2,4,6-trimethylphenyl)cyclopentyl]ethyl]-3-methyl-urea] | 60% | 80% | 80% | 100% | 90% | 60% | 90% | 70% | – | – | – | – | – | – | – | –
5 | Cc1cc(C)c(C2C(=O)CC(CCNC(=O)Nc3ccncn3)C2=O)c(C)c1 (stereo not drawn) [Compound A95] | 70% | 80% | 60% | 70% | 70% | 20% | 70% | 70% | – | – | – | – | – | – | – | –
6 | Cc1cc(C)c(C2C(=O)CC(CCNc3ccc([N+](=O)[O-])cn3)C2=O)c(C)c1 (stereo not drawn) [Compound A96] | 90% | 80% | 100% | 100% | 100% | 90% | 100% | 100% | – | – | – | – | – | – | – | –
7 | Cc1cc(C)c(C2C(=O)CC(CCNc3ncc(C(F)(F)F)cc3F)C2=O)c(C)c1 (stereo not drawn) [Compound A97] | 90% | 80% | 90% | 100% | 90% | 90% | 100% | 90% | – | – | – | – | – | – | – | –
8 | Cc1cc(-n2cc(Cl)cn2)cc(C)c1C1C(=O)CC(CCNc2ncc(C(F)(F)F)cc2F)C1=O (stereo not drawn) [Compound A98] | 90% | 40% | 90% | 90% | 100% | 70% | 100% | 90% | – | – | – | – | – | – | – | –
9 | Cc1cc(-n2cc(Cl)cn2)cc(C)c1C1C(=O)CC(CCNc2ccc([N+](=O)[O-])cn2)C1=O (stereo not drawn) [Compound A99] | 70% | 0% | 60% | 0% | 90% | 0% | 100% | 0% | – | – | – | – | – | – | – | –
10 | Cc1cc(-n2cc(Cl)cn2)cc(C)c1C1C(=O)CC(CCNc2ccc(C(F)(F)F)cn2)C1=O (stereo not drawn) [Compound A100] | 90% | 60% | 100% | 70% | 100% | 50% | 100% | 90% | – | – | – | – | – | – | – | –
11 | Cc1cc(C)c(C2C(=O)CC(CCN(C)C(=O)Nc3ccccn3)C2=O)c(C)c1 (stereo not drawn) [Compound A101, 1-[2-[2,4-dioxo-3-(2,4,6-trimethylphenyl)cyclopentyl]ethyl]-1-methyl-3-(2-pyridyl)urea] | 70% | 40% | 40% | 30% | 70% | 0% | 70% | 10% | – | – | – | – | – | – | – | –
12 | Cc1cc(C)c(C2C(=O)C[C@@H](CCNC(=O)C3=NOC(C)(C)C3)C2=O)c(C)c1 (stereo partly drawn) [Compound A102] | 100% | 100% | 100% | 100% | 100% | 90% | 100% | 100% | – | – | – | – | – | – | – | –
13 | Cc1cc(C)c(C2C(=O)C[C@H](CCNC(=O)C3=NOC(C)(C)C3)C2=O)c(C)c1 (stereo partly drawn) [Compound A103] | 80% | 80% | 70% | 80% | 80% | 50% | 70% | 60% | – | – | – | – | – | – | – | –
14 | Cc1cc(C)c(C2C(=O)CC(CCNc3ccc([N+](=O)[O-])cc3C(F)(F)F)C2=O)c(C)c1 (stereo not drawn) [Compound A104] | 90% | 60% | 90% | 80% | 80% | 70% | 70% | 90% | – | – | – | – | – | – | – | –
15 | Cc1cc(C)c(C2C(=O)CC(CCNc3ccc([N+](=O)[O-])cc3)C2=O)c(C)c1 (stereo not drawn) [Compound A105] | 90% | 20% | 80% | 20% | 80% | 20% | 90% | 10% | – | – | – | – | – | – | – | –
16 | Cc1cc(C)c(C2C(=O)CC(CCNc3ccc(C#N)cc3C(F)(F)F)C2=O)c(C)c1 (stereo not drawn) [Compound A106] | 90% | 70% | 90% | 60% | 90% | 40% | 90% | 90% | – | – | – | – | – | – | – | –
17 | Cc1cc(C)c(C2C(=O)CC(CCNc3ccc(C#N)cn3)C2=O)c(C)c1 (stereo not drawn) [Compound A107] | 100% | 90% | 100% | 100% | 100% | 90% | 100% | 100% | – | – | – | – | – | – | – | –
18 | CC#Cc1cc(C)c(C2C(=O)CC(CCNC(=O)C3=NOC(C)(C)C3)C2=O)c(C)c1 (stereo not drawn) [Compound A108] | 100% | 100% | 100% | 100% | 100% | 90% | 100% | 100% | – | – | – | – | – | – | – | –
